# Laboratory results from patent publication US20130079271A1, “REVERSED BIARYL SPIROAMINOOXAZOLINE ANALOGUES AS ALPHA2C ADRENERGIC RECEPTOR MODULATORS” (priority 2009, published 2013).
# Target: T1, α2C receptor (Homo sapiens, UniProt P18825)
# T1 sequence (P18825 1-462): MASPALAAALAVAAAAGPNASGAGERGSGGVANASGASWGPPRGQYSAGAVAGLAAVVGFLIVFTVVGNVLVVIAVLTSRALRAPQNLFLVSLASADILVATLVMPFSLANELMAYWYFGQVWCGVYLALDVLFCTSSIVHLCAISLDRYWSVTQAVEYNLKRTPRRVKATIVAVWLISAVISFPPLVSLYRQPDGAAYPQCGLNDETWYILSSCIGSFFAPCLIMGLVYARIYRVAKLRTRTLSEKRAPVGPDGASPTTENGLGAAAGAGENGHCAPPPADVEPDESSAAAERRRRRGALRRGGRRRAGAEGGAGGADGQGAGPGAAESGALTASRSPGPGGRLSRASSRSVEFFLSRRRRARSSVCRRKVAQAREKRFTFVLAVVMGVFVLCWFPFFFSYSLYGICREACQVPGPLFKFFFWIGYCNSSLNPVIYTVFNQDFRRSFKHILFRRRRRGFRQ
# Assay: Efficacy agonist activity (Emax, GTPγS assay) at α2C
# Type: biochemical
# Settings: by definition: efficacy at α2C ≧30% Emax (GTPγS assay); functionally selective if also efficacy at α2A ≦35% Emax
# Method: Efficacy agonist activity values (Emax, GTPγS assay) for α2A and α2C were determined by following the general procedure detailed by Umland et. al (“Receptor reserve analysis of the human α2c-adrenoceptor using [^35S]GTPγS and cAMP functional assays” European Journal of Pharmacology 2001, 411, 211-221). For the purposes of the present invention, a compound is defined to be a specific or at least functionally selective agonist of the α2C receptor subtype if the compound's efficacy at the α2C receptor is ≧30% Emax (GTPγS assay) and its efficacy at the α2A receptor is ≦35% Emax (GTPγS assay). Additionally, for the purposes of this invention, a compound is defined to be an antagonist of the α2C receptor subtype if the compound's efficacy at the α2C receptor is <30% Emax (GTPγS assay) and the Ki at the α2C receptor subtype was <500 nM, preferentially <200 nM, and most preferentially <20 nM.
row,Compound,evaluated to be active or functionally selective agonists of the α2C receptor subtype
1,NC1=NCC2(CCc3c(cccc3-c3cncnc3)C2)O1 (racemic) [(±)-1],active or functionally selective agonists
2,CN1OC2(CCc3cccc(-c4cncnc4)c3C2)N=C1N (racemic) [(±)-5B],active or functionally selective agonists
3,CN1OC2(CCc3ccc(-c4cncnc4)cc3C2)N=C1N (racemic) [(±)-5F],active or functionally selective agonists
4,CN1OC2(CCc3c(cccc3-c3cncnc3)C2)N=C1N (racemic) [(±)-5],active or functionally selective agonists
5,NC1=NCC2(CCc3c(cccc3-c3cc(F)cc(F)c3)C2)O1 (racemic) [(±)-104],active or functionally selective agonists
6,NC1=NCC2(CCc3c(cccc3-c3cncc(F)c3)C2)O1 (racemic) [(±)-108],active or functionally selective agonists
7,NC1=NC[C@]2(CCc3c(cccc3-c3cncc(F)c3)C2)O1 (racemic) [compound 113],active or functionally selective agonists
8,NC1=NC[C@]2(CCc3c(cccc3-c3cncnc3)C2)O1 [1f],active or functionally selective agonists
9,NC1=NC[C@]2(CCc3c(cccc3-c3cc(F)cc(F)c3)C2)O1 [compound 112],active or functionally selective agonists
